US7282494B2, “Heteroaryl diazacycloalkanes, their preparation and use” (Neurosearch A/S, priority 1909, dated 2007)
Structures can show the parent of a compound that is named as a salt. Where two headings read alike, the source gives them in different places.

How the values were obtained:
[1] = molecular target: nAChR formed by the α7 subunit isoform (Rattus norvegicus, UniProt Q05941); test: In vitro inhibition of 3H-α-bungarotoxine binding rat brain (Assay III)
[2] = molecular target: T1, neuronal nicotinic receptors (3H-epibatidine binding sites; high affinity site α4β2 subtype) (Rattus norvegicus, UniProt P09483+P12390); test: biochemical
T1 sequence (P09483 31-630): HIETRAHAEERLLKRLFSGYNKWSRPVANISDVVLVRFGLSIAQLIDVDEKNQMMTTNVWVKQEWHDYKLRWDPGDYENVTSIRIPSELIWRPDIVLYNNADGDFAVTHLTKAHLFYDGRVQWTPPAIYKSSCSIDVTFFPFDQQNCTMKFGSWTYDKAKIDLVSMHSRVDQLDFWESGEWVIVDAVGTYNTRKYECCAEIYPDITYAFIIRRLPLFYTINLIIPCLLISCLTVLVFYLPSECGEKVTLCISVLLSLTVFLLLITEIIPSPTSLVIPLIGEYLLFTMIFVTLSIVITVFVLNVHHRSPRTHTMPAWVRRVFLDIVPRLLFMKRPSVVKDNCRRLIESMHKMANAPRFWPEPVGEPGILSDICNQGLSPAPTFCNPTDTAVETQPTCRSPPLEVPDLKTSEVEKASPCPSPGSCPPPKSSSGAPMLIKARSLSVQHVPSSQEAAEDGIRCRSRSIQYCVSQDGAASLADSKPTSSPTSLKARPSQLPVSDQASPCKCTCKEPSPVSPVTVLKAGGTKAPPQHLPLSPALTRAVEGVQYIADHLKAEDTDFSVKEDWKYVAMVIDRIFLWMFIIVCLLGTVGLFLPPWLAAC
T1 sequence (P12390 25-500): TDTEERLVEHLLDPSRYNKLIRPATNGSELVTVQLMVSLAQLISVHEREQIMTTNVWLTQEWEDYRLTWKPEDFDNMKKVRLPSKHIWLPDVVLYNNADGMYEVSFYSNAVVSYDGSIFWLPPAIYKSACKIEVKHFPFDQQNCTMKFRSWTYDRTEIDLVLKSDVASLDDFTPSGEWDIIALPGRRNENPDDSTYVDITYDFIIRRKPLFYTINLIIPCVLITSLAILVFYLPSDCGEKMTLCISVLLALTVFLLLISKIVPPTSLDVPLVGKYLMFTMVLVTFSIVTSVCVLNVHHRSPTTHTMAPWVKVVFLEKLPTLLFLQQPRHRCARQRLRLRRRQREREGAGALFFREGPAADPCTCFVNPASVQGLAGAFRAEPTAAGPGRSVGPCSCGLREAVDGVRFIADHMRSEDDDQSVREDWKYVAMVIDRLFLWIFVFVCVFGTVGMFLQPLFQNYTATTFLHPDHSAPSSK

[3] = molecular target: T1, neuronal nicotinic receptors (3H-epibatidine binding sites; high affinity site α4β2 subtype)
[4] = 3H-α-bungarotoxine 2 nM, cerebral cortices from male Wistar rats, 2 h at 37° C., read-out: Assay III IC50

nAChR formed by the α7 subunit isoform, sequence (Q05941 23-502): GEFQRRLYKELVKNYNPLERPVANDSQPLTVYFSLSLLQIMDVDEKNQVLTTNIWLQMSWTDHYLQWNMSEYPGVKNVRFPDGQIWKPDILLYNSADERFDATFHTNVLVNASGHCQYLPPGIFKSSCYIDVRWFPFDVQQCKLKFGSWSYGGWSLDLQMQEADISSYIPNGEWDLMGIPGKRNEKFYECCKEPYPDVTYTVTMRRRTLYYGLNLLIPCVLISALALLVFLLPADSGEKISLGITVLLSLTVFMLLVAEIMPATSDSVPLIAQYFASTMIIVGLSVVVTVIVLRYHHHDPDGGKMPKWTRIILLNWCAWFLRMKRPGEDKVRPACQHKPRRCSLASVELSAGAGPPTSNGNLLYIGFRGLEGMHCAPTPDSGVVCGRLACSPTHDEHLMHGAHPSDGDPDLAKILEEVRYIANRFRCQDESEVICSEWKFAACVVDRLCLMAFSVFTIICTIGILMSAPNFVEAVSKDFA

COc1cc(N2CCCNCC2)cnc1Br (as salt: fumaric acid salt)
melting point: 210 to 212 °C

CCC(CC)COc1cncc(N2CCCNCC2)c1 [1-[5-(2-Ethyl-1-butoxy)-3-pyridyl]-homopiperazine]
IC50 [1, 4]: > 30000 nM
IC50 [2]: 13 nM

Brc1cncc(N2CCCNCCC2)c1 (as salt: fumaric acid salt)
melting point: 151 to 153 °C

C(#Cc1cncc(N2CCCNCC2)c1)c1ccccc1 [1-(5-Phenylacetylenyl-3-pyridyl)-homopiperazine]
IC50 [1, 4]: 11000 nM
IC50 [2]: 5 nM

CCCC=CCOc1cncc(N2CCCNCC2)c1 (as salt: fumaric acid salt) [1-[5-(Hex-2-en-ox)-3-pyridyl]-homopiperazine]
melting point: 126.8 to 130.2 °C

C=COc1cncc(N2CCCN(c3cncc(OC=C)c3)CC2)c1 (as salt: fumaric acid salt)
melting point: 157 to 158.5 °C

C=CCN1CCCN(c2cncc(OCC)c2)CC1 [1-(5-Ethoxy-3-pyridyl)-4-(prop-2-en-1-yl-)-homopiperazine]
IC50 [1]: > 30000 nM

Clc1cc(N2CCCNCC2)cnc1Cl [1-(5,6-Dichloro-3-pyridyl)-homopiperazine]
IC50 [1, 4]: < 3000 nM
IC50 [2]: 2 nM

C=COc1cc(N2CCCNCC2)cnc1Br (as salt: fumaric acid salt)
melting point: 128.6 °C

CCCC=CCOc1cncc(N2CCCNCC2)c1 [1-[5-(Hex-2-en-ox)-3-pyridyl]-homopiperazine]
IC50 [1, 4]: 47000 nM
IC50 [2]: 8 nM

CCOc1cncc(N2CCCN(c3cncc(OCC)c3)CC2)c1 (as salt: fumaric acid salt)
melting point: 155 to 156 °C

CC1OC1Oc1cncc(N2CCCNCC2)c1 (stereo not shown) [1-[5-(Propyl-1,2-epoxy-1-oxy)-3-pyridyl]-homopiperazine]
IC50 [1, 4]: 58000 nM
melting point: 135.2 to 139 °C
IC50 [2]: 40 nM

Brc1ccc(N2CCCNCC2)nn1 (as salt: fumaric acid salt) [1-(6-Bromo-3-pyridazinyl)-homopiperazine]
melting point: 169 to 171 °C

Brc1ccc(N2CCCNCC2)nn1 [1-(6-Bromo-3-pyridazinyl)-homopiperazine]
IC50 [1, 4]: 1500 nM
IC50 [2]: 70 nM

c1ncc(N2CCCNCC2)cc1N1CCC1 (as salt: fumaric acid salt)
melting point: 143.5 to 146.9 °C

Clc1cc(N2CCCNCC2)cnc1Cl (as salt: fumaric acid salt) [1-(5,6-Dichloro-3-pyridyl)-homopiperazine]
melting point: 172.2 to 173.4 °C

CCOc1cncc(N2CCCN(CC)CC2)c1 [1-(5-Ethoxy-3-pyridyl)-4-ethyl-homopiperazine]
IC50 [1]: > 30000 nM

c1ncc(N2CCCNCC2)cc1N1CCCC1 [1-[5-(N-pyrrolidinyl)-3-pyridyl]-homopiperazine]
IC50 [1, 4]: 5000 nM
IC50 [2]: 40 nM

C=CC(C)Oc1cncc(N2CCCNCC2)c1 (stereo not shown) (as salt: fumaric acid salt) [1-[5-(1-Methyl-1-prop-2-en-oxy)-3-pyridyl]-homopiperazine]
melting point: 129.5 to 133.6 °C

CCC(CC)COc1cncc(N2CCCNCC2)c1 (as salt: fumaric acid salt) [1-[5-(2-Ethyl-1-butoxy)-3-pyridyl]-homopiperazine]
melting point: 113.7 to 115.9 °C

C(#Cc1cncc(N2CCCNCC2)c1)c1ccccc1 (as salt: fumaric acid salt) [1-(5-Phenylacetylenyl-3-pyridyl)-homopiperazine]
melting point: 155.2 to 157.8 °C

CCCCOc1cncc(N2CCCNCCC2)c1 [1-[5-(Butoxy)-3-pyridyl]-1,5-diazacyclooctane]
IC50 [2]: 3 nM

c1ncc(N2CCCNCC2)cc1N1CCCC1 (as salt: fumaric acid salt) [1-[5-(N-pyrrolidinyl)-3-pyridyl]-homopiperazine]
melting point: 141.5 to 143 °C

c1ncc(N2CCCNCC2)cc1OCC1CCC1 [1-[5-(Cyclobutylmethoxy)-3-pyridyl]-homopiperazine]
IC50 [1, 4]: > 30000 nM
IC50 [2]: 4 nM

Ic1cncc(N2CCCNCC2)c1 (as salt: fumaric acid salt)
melting point: 178 to 180 °C

Brc1cc(N2CCCNCC2)cnc1Br [1-(5,6-Dibromo-3-pyridyl)-homopiperazine]
IC50 [1, 4]: 3000 nM
IC50 [2]: 1 nM

Clc1ncc(N2CCCNCC2)cc1Br [1-(5-Bromo-6-chloro-3-pyridyl)-homopiperazine]
IC50 [1, 4]: < 3000 nM
IC50 [2]: 1 nM

Clc1ncc(N2CCCNCC2)cc1Br (as salt: fumaric acid salt) [1-(5-Bromo-6-chloro-3-pyridyl)-homopiperazine]
melting point: 188.2 to 189.2 °C

CCCCCOc1cncc(N2CCN(C)CC2)c1 (as salt: fumaric acid salt)
melting point: 113.6 to 115.1 °C

Clc1cc(N2CCCNCC2)cnc1Br [1-(6-Bromo-5-chloro-3-pyridyl)-homopiperazine]
IC50 [1, 4]: < 3000 nM
IC50 [2]: 2 nM

CCCCN(C)c1cncc(N2CCCNCC2)c1 (as salt: fumaric acid salt) [1-[5-(N-Butyl-N-methylamino)-3-pyridyl]homopiperazine]
melting point: 140.5 to 141.8 °C

C=CC(C)Oc1cncc(N2CCCNCC2)c1 (stereo not shown) [1-[5-(1-Methyl-1-prop-2-en-oxy)-3-pyridyl]-homopiperazine]
IC50 [1, 4]: 11000 nM
IC50 [2]: 52 nM

C=COc1cc(N2CCCNCC2)cnc1Cl (as salt: fumaric acid salt)
melting point: 183 to 185 °C

CC(C)=COc1cncc(N2CCCNCC2)c1 [1-[5-(2-Methyl-1-prop-1-en-oxy)-3-pridyl]-homopiperazine]
IC50 [1, 4]: 85000 nM
IC50 [3]: 20 nM

c1ncc(N2CCCNCC2)cc1OCC1CCC1 (as salt: fumaric acid salt) [1-[5-(Cyclobutylmethoxy)-3-pyridyl]-homopiperazine]
melting point: 158.9 to 159.9 °C

Brc1cc(N2CCCNCC2)cnc1Br (as salt: fumaric acid salt) [1-(5,6-Dibromo-3-pyridyl)-homopiperazine]
melting point: 192.1 to 193.2 °C

Clc1cncc(N2CCCNCCC2)c1 (as salt: fumaric acid salt)
melting point: 186 to 187 °C

Clc1cc(N2CCCNCC2)cnc1Br (as salt: fumaric acid salt) [1-(6-Bromo-5-chloro-3-pyridyl)-homopiperazine]
melting point: 213 to 216 °C
